Several values for one entry are separate records, joined by “and”; a condition that tells them apart may be missing. Equal entries are not always repeated. Results filed as inconclusive are left out.
Tested on: MX-1 breast xenograft, nude mice, tumor weight T/C
Experiment: NCI In Vivo Anticancer Drug Screen. Data for tumor model Human Mammary Carcinoma MX-1 Xenograft (intrarenal inoculation) in NU/NU Swiss (nude) mice
Conditions: endpoint: mean tumor weight change, higher = larger tumour
In short: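 Antitumour effect measured in vivo against vehicle controls, expressed as T/C.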

[1] = dose: 100.0 mg/kg/injection, schedule: Q01DX010 (sc), vehicle: saline with Tween-80
[2] = dose: 200.0 mg/kg/injection, schedule: Q01DX010 (sc), vehicle: saline with Tween-80
[3] = dose: 400.0 mg/kg/injection, schedule: Q01DX010 (sc), vehicle: saline with Tween-80
[4] = dose: 300.0 mg/kg/injection, schedule: Q04DX003 (sc), vehicle: saline with Tween-80
[5] = dose: 600.0 mg/kg/injection, schedule: Q04DX003 (sc), vehicle: saline with Tween-80
[6] = dose: 1200.0 mg/kg/injection, schedule: Q04DX003 (sc), vehicle: saline with Tween-80
[7] = dose: 2400.0 mg/kg/injection, schedule: Q04DX003 (sc), vehicle: saline with Tween-80

Nc1ccc2nc3ccc(N)cc3[n+](-c3ccccc3)c2c1
T/C (dose: 18.0 mg/kg/injection, schedule: Q04DX003 (sc), vehicle: saline): 65 % of control
T/C (dose: 36.0 mg/kg/injection, schedule: Q04DX003 (sc), vehicle: saline): 119 % of control
T/C (dose: 72.0 mg/kg/injection, schedule: Q04DX003 (sc), vehicle: saline): 72 % of control
T/C (dose: 144.0 mg/kg/injection, schedule: Q04DX003 (sc), vehicle: saline): 59 % of control

C[C@@H](CN1CC(=O)NC(=O)C1)N1CC(=O)NC(=O)C1
T/C [1]: 63 % of control
T/C [2]: 81 % of control
T/C [3]: 39 % of control

CC[C@H](CC[C@@H](C)C1CC[C@H]2[C@@H]3CC=C4C[C@@H](OP(=O)(N5CC5)N5CC5)CC[C@]4(C)[C@H]3CC[C@]12C)C(C)C (some centres not stated)
T/C [4]: 71 % of control
T/C [5]: 113 % of control
T/C [6]: 65 % of control
T/C [7]: 62 % of control

CCO/C=C1\SC(=S)N(c2ccccc2C)C1=O
T/C [1]: 121 % of control
T/C [2]: 90 % of control
T/C (dose: 800.0 mg/kg/injection, schedule: Q01DX010 (sc), vehicle: saline with Tween-80): 111 % of control

C=C(C)[C@H]1CN[C@H](C(=O)O)[C@H]1CC(=O)O
T/C (dose: 20.0 mg/kg/injection, schedule: Q04DX003 (sc), vehicle: suspension in saline): 75 % of control
T/C (dose: 40.0 mg/kg/injection, schedule: Q04DX003 (sc), vehicle: suspension in saline): 36 % of control

C=C1N(C)c2ccccc2C1(C)C
T/C (dose: 25.0 mg/kg/injection, schedule: Q04DX003 (sc), vehicle: saline with Tween-80): 100 % of control
T/C (dose: 50.0 mg/kg/injection, schedule: Q04DX003 (sc), vehicle: saline with Tween-80): 75 % of control

[N-]=[N+]=C1N=CN=C1c1ncn[nH]1
T/C (dose: 12.5 mg/kg/injection, schedule: Q01DX010 (sc), vehicle: Klucel (hydroxypropylcellulose) (HPC)): 121 % of control
T/C (dose: 25.0 mg/kg/injection, schedule: Q01DX010 (sc), vehicle: Klucel (hydroxypropylcellulose) (HPC)): 76 % of control

CCOC(=O)c1cn(C)c2c1C(O)=C(C(=O)OC)CC(=O)N2
T/C (dose: 150.0 mg/kg/injection, schedule: Q04DX003 (sc), vehicle: saline with Tween-80): 95 % of control
T/C [4]: 80 % of control
T/C [5]: 85 % of control
T/C [6]: 90 % of control

CCN(CC)CCNc1ccc(C)c2sc3ccc(O)cc3c(=O)c12
T/C [5]: 67 % of control
T/C [6]: 57 % of control

C[C@H]1C[C@@H]2[C@H]([C@@H](O)C[C@@]3(C)[C@H]2CC[C@]3(O)C(=O)CO)[C@@]2(C)C=CC(=O)C=C12
T/C (dose: 200.0 mg/kg/injection, schedule: Q04DX003 (sc), vehicle: Klucel (hydroxypropylcellulose) (HPC)): 33 % of control
T/C (dose: 400.0 mg/kg/injection, schedule: Q04DX003 (sc), vehicle: Klucel (hydroxypropylcellulose) (HPC)): 31 % of control
T/C (dose: 800.0 mg/kg/injection, schedule: Q04DX003 (sc), vehicle: Klucel (hydroxypropylcellulose) (HPC)): 30 % of control
T/C (dose: 1600.0 mg/kg/injection, schedule: Q04DX003 (sc), vehicle: Klucel (hydroxypropylcellulose) (HPC)): 13 % of control

O=C(C1CO1)C(Cl)(Cl)Cl (configuration not stated)
T/C (dose: 150.0 mg/kg/injection, schedule: Q04DX003 (sc), vehicle: saline): 64 % of control

CCCCOC(=O)/C=C(\Br)C(=O)OCCCC
T/C (dose: 50.0 mg/kg/injection, schedule: Q01DX010 (sc), vehicle: saline with Tween-80): 102 % of control
T/C [1]: 68 % of control
T/C [2]: 191 % of control
T/C [3]: 205 % of control

Nc1ccc2c(c1)CN1C(=O)c3ccccc3C1=N2
T/C [4]: 203 % of control
T/C [5]: 168 % of control
T/C [6]: 76 % of control

OCC1OC(n2cnc3cc(Cl)c(Cl)cc32)C(O)C1O (configuration not stated)
T/C [4]: 156 % of control
T/C [5]: 114 % of control and 118 % of control
T/C [6]: 114 % of control
T/C [7]: 66 % of control
